Reference: patent US20230144023A1, “USE OF BUTYLPHTHALIDE AND DERIVATIVE THEREOF” (CSPC NBP PHARMACEUTICAL CO., LTD, priority 2020, published 2023)
“And” between values parts separate entries of the source, which are not always exact repeats. Identical values can stand only once. Counter-ions that a name gives are not always drawn. Like-named read-outs stand apart in the source and are kept apart here.

Tests used:
[1] = test system: chemotherapy-induced peripheral neuropathy; conditions: treatment of CIPN; guideline rating; cited from earlier work
[2] = test system: chemotherapy-induced peripheral neuropathy; conditions: cited from earlier work
[3] = cited from earlier work
[4] = test system: MM.1S xenograft tumor; assay: Influence of NBP on in vivo anti-tumor efficacy of Bortezomib, MM.1S xenograft (Example 8); set-up: species or system Nu/Nu mice; conditions: for T/C % / TGI % / RTV / TV: day 14; for T/C % / TGI % / RTV / TV / Tumor weight inhibition rate / Tumor weight: Bor 0.5 mg/kg, Pal 70 mg/kg, NBP 60 mg/kg, alone or combined; for RTV / TV / Tumor weight: mean, n=6; for Tumor weight inhibition rate / Tumor weight: end of experiment; for Tumor weight: in g (unit assumed); for body weights of the mice: mouse, in vivo
Method: After in vitro resuscitation and passage of MM.1S cells to a sufficient amount, the cells were counted by a microscope, and diluted with a serum-free medium to adjust the cell count to about 1×10^8 cells/mL. The cell suspension was kept in an ice-water bath. The MM.1S cell suspension was extracted by a sterile syringe and inoculated into the subcutaneous tissue of the forelimb axilla of the Nu/Nu mice. […] Monotherapy group of Palbociclib: intragastric administration at 70 mg/kg, qd (the administration was commenced on day 0); […] The solvent group was given the solvent at the same frequency and with the same administration method as Bortezomib and NBP. The administration period was 16 days, and the administration volume was 10 mL/kg. […] Animals were weighed at set time once per day after the commencement of administration. After animals were grouped, the long diameter and the short diameter of the tumor were measured twice every week. […] V=1⁄2×A×B^2 […] (4) Tumor growth inhibition rate: Note: V: tumor volume; A: tumor length; B: tumor width; RTV: relative tumor volume; TVnd: tumor volume on day n; TV0d: tumor volume on day 0; […]: mean relative tumor volume on day n; TVXn: mean tumor volume of the therapy group on day n; TVX0: mean tumor volume of the therapy group on day 0; TVMn: mean tumor volume of the solvent group on day n; and TVM0: mean tumor volume of the solvent group on day 0 At the end of the experiment, after the animals were euthanized by CO2 asphyxiation, the tumors were excised and weighed.

[5] = test system: MM.1S
Method: (§1) This experiment includes a monotherapy group of Bortezomib, a combined therapy group (Bortezomib/NBP), and a monotherapy group of NBP. Different drug concentration gradients were set for each group.
(§2) Monotherapy group of Bortezomib: (1) MM.1S, Jeko-1, and HT29 cells: Bortezomib was 1.5× serially diluted from an initial concentration of 20 nM to 8 concentrations: 20, 13.33, 8.89, 5.93, 3.95, 2.63, 1.76, and 1.17 nM, respectively; (2) A549 cells: Bortezomib was 2×serially diluted from an initial concentration of 200 nM to 8 concentrations: 200, 100, 50, 25, 12.5, 6.25, 3.13, and 1.56 nM, respectively; and (3) DU145 cells: Bortezomib was 2× serially diluted from an initial concentration of 100 nM to 8 concentrations: 100, 50, 25, 12.5, 6.25, 3.13, 1.56, and 0.78 nM, respectively.
(§3) A certain number of conventionally cultured cells in logarithmic growth phase were inoculated in a 96-well plate with 100 μL per well. […] For adherent cells HT29, A549, and DU145, the above drugs were added 24 h after adherence. 3 replicate wells were set for each concentration of each drug, and blank wells (only culture medium was present, and no tumor cells were inoculated) and normal wells (a culture medium inoculated with tumor cells, drug concentration was 0) were set. The drugs functioned for 72 h, then MTT working solution (5 mg/mL) was added at 20 μL per well; after functioning at 37° C. for 4 h, the supernatant was removed, 150 μL of DMSO (analytically pure) was added; the mixture was fully mixed using a microplate oscillator, the plate was wiped clean, and the optical density (OD) at 550 nm was measured using a microplate reader.
(§4) The cell growth inhibition rate was computed using the following equation:
(§5) Inhibition rate (%)=(OD valuenormal well−OD valueadministration well)/(OD valuenormal well−OD valueblank well)×100%
(§6) Based on the inhibition rate of each concentration, the median inhibitory concentration IC50 of the drug was computed using SPSS19.0.

[6] = test system: Jeko-1
Method: as §1, §2, §3, §4, §5, §6

[7] = test system: A549
Method: as §1, §2, §3, §4, §5, §6

[8] = PK of Bortezomib and butylphthalide in plasma of MM.1S tumor-bearing mice (Example 8); assay type: in vivo, Nu/Nu mice
Method: Monotherapy group of Bortezomib: administered by intraperitoneal injection at 0.5 mg/kg, biw (on days 0, 3, 7, 10, and 15);
Monotherapy group of NBP: administered by transoral gavage at 60 mg/kg, bid (the administration was commenced on day 0), and the second dose of NBP was administered with an interval from the first dose of ≥4 h;
Monotherapy group of Palbociclib: intragastric administration at 70 mg/kg, qd (the administration was commenced on day 0);
Combined therapy group of NBP/Bortezomib: the administration frequency and dose were the same as the frequency and dose of the monotherapy group of NBP and the monotherapy group of Bortezomib, respectively.
Combined therapy group of Bortezomib/Palbociclib: the administration frequency and dose were the same as the frequency and dose of the monotherapy group of Bortezomib and the monotherapy group of Palbociclib, respectively.
Combined therapy group of NBP/Bortezomib/Palbociclib: the administration frequency and dose were the same as the frequency and dose of the monotherapy group of NBP, the monotherapy group of Bortezomib, and the monotherapy group of Palbociclib, respectively.
Before administration of the last dose of Bortezomib (0 h), and 5 min, 15 min, 30 min, 1 h, 2 h, 4 h, 8 h, 24 h after the administration, blood was sampled (as detailed in Table 8) (except that blood was sampled from the mice in the solvent group only at 0 h), anticoagulated with heparin, and centrifuged to separate plasma, which was stored at −80° C. for later use. Bortezomib and butyphthalide in the plasma were determined by protein precipitation-LC/MS/MS.

[9] = test system: DU145
Method: as §1, §2, §3, §4, §5, §6

[10] = test system: MM.1S, Jeko-1, HT29, A549, DU145; assay: In vitro proliferation of 5 cell strains, summary statements (Example 7); assay type: cell-based, Human; conditions: Homo sapiens; range over MM.1S, Jeko-1, HT29, A549, DU145; combined therapy with 30 μM NBP
Method: Different drug concentration gradients were set for each group.
Monotherapy group of NBP: NBP was 2× serially diluted from an initial concentration of 480 μM to 8 concentrations: 480, 240, 120, 60, 30, 15, 7.5, and 3.75 μM, respectively.
The action time of the drug was 72 h.
3 replicate wells were set for each concentration of each drug, and blank wells (only culture medium was present, and no tumor cells were inoculated) and normal wells (a culture medium inoculated with tumor cells, drug concentration was 0) were set.

[11] = test system: HT29
Method: as §1, §2, §3, §4, §5, §6

[12] = test system: paclitaxel (albumin bound) chemotherapy-induced peripheral neuropathy; assay: Paclitaxel (albumin bound) chemotherapy-induced peripheral neuropathy in rats, butylphthalide intragastric administration (Example 2); assay type: in vivo, SD (Sprague Dawley) rats; conditions: duloxetine hydrochloride 15 mg/kg qd, compared with the model group
Method: The model group was given vegetable oil at the same frequency and with the same administration method as NBP. The normal group was given normal saline at the same frequency and with the same administration method as ab-PTX, and was given vegetable oil at the same frequency and with the same administration method as NBP. […] (2) Thermal pain threshold: measurements were performed on days −1, 7, and 14. Method: IITC Life Science Electronic Von Frey Anesthesio meter was used and the intensity of the light source was adjusted to obtain a baseline of thermal pain threshold of about 3-6 s. […] The rats were placed in a plastic compartment on a glass plate, to make the planta centers of the rats be exposed to the light source. […] (3) Mechanical stimulus pain threshold: measurements were performed on days 0, 6, and 13. Method: the rats were placed in a plastic compartment on a wire mesh, left to stand still for 15 min, stimulated using a stimulation probe with a diameter of 0.4 mm of the IITC Life Science Electronic Von Frey Anesthesio meter at the planta centers of the rats by gradually increasing the force until reflexive withdrawal of the rats.

[13] = prevention of CIPN, patients receiving oxaliplatin treatment
[14] = prevention of CIPN, guideline rating
[15] = Bor 0.5 mg/kg i.p., Pal 70 mg/kg, NBP 60 mg/kg, mean ± SD, n=6
[16] = prevention of CIPN, patients receiving cisplatin/oxaliplatin-based chemotherapy
[17] = prevention of CIPN, patients receiving paclitaxel/carboplatin chemotherapy

Amitriptyline/nortriptyline
Efficacy [1]: Low

Omega-3-fatty acid
Efficacy [2, 13]: Low | Safety [2, 13]: Low

rhuLIF: intervention for prevention of CIPN listed in the ASCO guideline table
Safety [2]: Low | Efficacy [2, 14]: No evidence

Vitamin E
Efficacy [2, 14]: Low | Safety [2, 14]: Low

CCN(CC)C(=S)S [Diethyldithio-carbamate]
Safety [2, 14]: High

CC(=O)N[C@@H](CS)C(=O)O [Acetylcysteine]
Efficacy [2, 14]: Low | Safety [2, 14]: Low

NC(=O)N1c2ccccc2C=Cc2ccccc21 [Carbamazepine]
Efficacy [2, 14]: Low | Safety [2, 14]: Low

CC[C@]1(O)C[C@H]2CN(CCc3c([nH]c4ccccc34)[C@@](C(=O)OC)(c3cc4c(cc3OC)N(C=O)[C@H]3[C@@](O)(C(=O)OC)[C@H](OC(C)=O)[C@]5(CC)C=CCN6CC[C@]43[C@@H]65)C2)C1 [vincristine]
patients experiencing coasting ([3]; when the chemotherapy is stopped): 30%

CC1=C(/C=C/C(C)=C/C=C/C(C)=C/C(=O)O)C(C)(C)CCC1 [All-trans retinoic acid]
Efficacy [2, 14]: Low | Safety [2, 14]: Moderate

CC(=O)c1c(C)c2cnc(Nc3ccc(N4CCNCC4)cn3)nc2n(C2CCCC2)c1=O [Palbociclib]
T/C % [4]: 44.4% | TGI % [4]: 56.3% | RTV [4]: 4.3 | TV [4]: 605.4 mm^3 | Tumor weight inhibition rate [4]: 66.6% | Tumor weight [4]: 0.550 | body weights of the mice [4]: no significant difference

N[C@@H](CCC(=O)O)C(=O)O [Glutamate]
Efficacy [2, 14]: Low | Safety [2, 14]: Low

COCCOC(=O)C1=C(C)NC(C)=C(C(=O)OC(C)C)C1c1cccc([N+](=O)[O-])c1 (centres unmarked) [Nimodipine]
Safety [2, 14]: Moderate

CC(C)C[C@H](NC(=O)[C@H](Cc1ccccc1)NC(=O)c1cnccn1)B(O)O [Bortezomib]
patients still having clinically significant neuropathy ([3]; 2-3 months after treatment): 60-85% | additional patients with moderate to severe neurotoxicity ([3]; human, in vivo): ~30% | patients with severe painful sensory neuropathy ([3]; human, in vivo): 50% | IC50 [5]: 2.55 nM and 2.94 nM and 2.99 nM and 2.83 nM | IC50 [6]: 4.83 nM and 3.51 nM and 4.47 nM and 4.27 nM | T/C % [4]: 98.0% | TGI % [4]: 8.7% | RTV [4]: 9.6 | TV [4]: 1124.8 mm^3 | Tumor weight inhibition rate [4]: 22.2% | Tumor weight [4]: 1.282 | body weights of the mice [4]: no significant difference | IC50 [7]: 11.8 nM and 13.3 nM and 10.6 nM and 11.9 nM | CI of Bortezomib [8, 15]: 1.81 ± 0.56 L/h/kg | Vd of Bortezomib [8, 15]: 14.2 ± 3.2 L/kg | influence of Bortezomib on the pharmacokinetic behavior of NBP in mice ([8]; Bortezomib 0.5 mg/kg): substantially did not affect | AUC(0-t) ([8]; Nu/Nu, mouse, plasma, ip, Bor 0.5 mg/kg i.p., Pal 70 mg/kg, NBP 60 mg/kg, mean ± SD, n=6, read-out: AUC0-t of Bortezomib in plasma): 290 ± 104 ng·h/mL | MRT last ([8]; Nu/Nu, mouse, plasma, ip, Bor 0.5 mg/kg i.p., Pal 70 mg/kg, NBP 60 mg/kg, mean ± SD, n=6, read-out: MRT0-t of Bortezomib): 5.9 ± 0.8 h | half-life ([8]; Nu/Nu, mouse, plasma, ip, Bor 0.5 mg/kg i.p., Pal 70 mg/kg, NBP 60 mg/kg, mean ± SD, n=6, read-out: t1/2 of Bortezomib in plasma (converted)): 2.36 ± 0.0483 days | Cmax ([8]; Nu/Nu, mouse, plasma, ip, after last Bortezomib dose, Bor 0.5 mg/kg i.p., Pal 70 mg/kg, NBP 60 mg/kg, mean ± SD, n=6, read-out: Cmax of Bortezomib in plasma): 113 ± 8 ng/mL | IC50 [9]: 12.8 nM and 11.9 nM and 17.1 nM and 13.9 nM | IC50 [10]: 1 to 20 nM | IC50 [11]: 4.43 nM and 4.97 nM and 5.65 nM and 5.02 nM

CN(C)CCC=C1c2ccccc2CCc2ccccc21 [Amitriptyline]
Efficacy [2, 14]: No evidence | Safety [2, 14]: Moderate

CNCC[C@H](Oc1cccc2ccccc12)c1cccs1 [duloxetine hydrochloride, Duloxetine hydrochloride]
body weights of the rats ([12]; NBP 3, 10 and 30 mg/kg bid, intragastric, throughout administration): significantly increase | mechanical pain threshold ([12]; day 13, NBP 10 and 30 mg/kg bid, P<0.05): significantly decreased | thermal pain threshold ([12]; day 14, NBP 3, 10 and 30 mg/kg bid, P<0.05): significantly decreased

N[C@@H](CCC(=O)N[C@@H](CS)C(=O)NCC(=O)O)C(=O)O [Glutathione]
Efficacy [2, 16]: Low | Safety [2, 16]: Low | Efficacy [2, 17]: Low | Safety [2, 17]: Low

CC(=O)O[C@H](CC(=O)[O-])C[N+](C)(C)C [Acetyl L-carnitine]
Efficacy [2, 14]: Low | Safety [2, 14]: Low | Efficacy [1]: Low | Safety [1]: Moderate

Nc1nnc(-c2cccc(Cl)c2Cl)c(N)n1 [Lamotrigine]
Efficacy [1]: No evidence | Safety [1]: Low

NCCCNCCSP(=O)(O)O [Amifostine]
Efficacy [2, 14]: Low | Safety [2, 14]: Moderate

CNCC[C@H](Oc1cccc2ccccc12)c1cccs1 [Duloxetine]
Efficacy [1]: Moderate | Safety [1]: Low

NCC1(CC(=O)O)CCCCC1 [Gabapentin]
Efficacy [1]: Low | Safety [1]: Low

COc1ccc(C(CN(C)C)C2(O)CCCCC2)cc1 (centres unmarked) [Venlafaxine]
Efficacy [2, 14]: Low | Safety [2, 14]: Low
